pEC50: −log10 of the molar value.
What was measured:
FPR2 [1] = target: T1, FPR2 (Homo sapiens (Human), UniProt P25090); assay: FPR2 Ga16-CHO EC50 (efficacy), Tables 1-3; format: cell-based; conditions: for FPR2 Ga16-CHO (efficacy): efficacy in parentheses
FPR2 [2] = target: T1, FPR2; assay: FLIPR Ca+2 response, HEK-Gα16 cells stably expressing the human FPR2 receptor (Table 4); format: cell-based; conditions: for FPR2 (efficacy): efficacy in parentheses
Method in brief: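 HEK-Gα16 cells stably expressing human FPR2, loaded with 2 μM Fluo-4 in HBSS/20 mM HEPES for 40 min at 37° C., then washed. Ligands added in HBSS/Hepes and Ca+2 responses recorded on FLIPR in relative fluorescence units.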

T1 sequence (P25090 whole entry): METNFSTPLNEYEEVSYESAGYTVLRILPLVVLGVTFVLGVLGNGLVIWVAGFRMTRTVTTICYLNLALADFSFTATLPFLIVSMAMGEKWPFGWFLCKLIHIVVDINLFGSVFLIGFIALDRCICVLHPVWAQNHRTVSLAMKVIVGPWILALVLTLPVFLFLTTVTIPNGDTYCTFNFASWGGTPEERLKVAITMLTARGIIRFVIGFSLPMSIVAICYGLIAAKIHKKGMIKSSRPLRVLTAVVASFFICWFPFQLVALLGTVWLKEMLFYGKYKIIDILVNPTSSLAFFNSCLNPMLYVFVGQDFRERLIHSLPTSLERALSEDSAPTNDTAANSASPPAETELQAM

Structure (SMILES) | pEC50 (FPR2 [1]) | FPR2 Ga16-CHO (efficacy) (FPR2 [1]) | FPR2 (efficacy) (FPR2 [2]) | other results
CCC1(CC)NC(=O)N(CC(=O)Nc2ccc(F)cc2)C1=O [2-(4,4-diethyl-2,5-dioxoimidazolidin-1-yl)-N-(4-fluorophenyl)acetamide] | 5.56 | nM (0.67) | – | –
CCC1(c2ccccc2)NC(=O)N(CC(=O)Nc2ccc(Br)cc2)C1=O (centres unmarked) [N-(4-bromophenyl)-2-(4-ethyl-2,5-dioxo-4-phenylimidazolidin-1-yl)acetamide] | 6.28 | nM (0.83) | – | –
O=C(Nc1ccc(Cl)cc1)NC(Cc1ccccc1)C(=O)O (centres unmarked) [2-({[(4-chlorophenyl)amino]carbonyl}amino)-3-phenylpropanoic acid] | 6.96 | nM (1.0) | – | –
O=C(Nc1ccc([N+](=O)[O-])cc1)N[C@@H](Cc1ccccc1)C(=O)O [(2S)-2-({[(4-nitrophenyl)amino]carbonyl}amino)-3-phenylpropanoic acid] | – | nM (0.82) | – | –
CCC1(C)NC(=O)N(CC(=O)Nc2ccc(Br)cc2)C1=O (centres unmarked) [N-(4-bromophenyl)-2-(4-ethyl-4-methyl-2,5-dioxoimidazolidin-1-yl)acetamide] | 6.31 | nM (1.0) | – | –
CC(C)[C@H](NC(=O)Nc1ccc(Br)cc1)C(=O)O [(2S)-2-({[(4-bromophenyl)amino]carbonyl}amino)-3-methylbutanoic acid] | 7.14 | nM (0.91) | – | –
CC1(C2CC2)NC(=O)N(CC(=O)Nc2ccc(Br)cc2)C1=O (centres unmarked) [N-(4-bromophenyl)-2-(4-cyclopropyl-4-methyl-2,5-dioxoimidazolidin-1-yl)acetamide] | 6.78 | nM (0.84) | – | –
O=C(Nc1ccc(Br)cc1)N[C@@H](Cc1ccccc1)C(=O)O [(2S)-2-({[(4-bromophenyl)amino]carbonyl}amino)-3-phenylpropanoic acid] | 7.51 | nM (1.0) | – | –
O=C(Nc1cccnc1)NC(Cc1ccccc1)C(=O)O (centres unmarked) [3-phenyl-2-{[(pyridin-3-ylamino)carbonyl]amino}propanoic acid] | < 5.00 | – | – | –
COc1ccc(NC(=O)NC(Cc2ccccc2)C(=O)O)cc1OC (centres unmarked) [2-({[(3,4-dimethoxyphenyl)amino]carbonyl}amino)-3-phenylpropanoic acid] | 5.55 | nM (0.72) | – | –
CC1(CCc2ccccc2)NC(=O)N(NC(=O)Nc2ccccc2)C1=O (centres unmarked) [1-[4-methyl-2,5-dioxo-4-(2-phenylethyl)imidazolidin-1-yl]-3-phenylurea] | 6.65 | nM (1.0) | – | –
O=C(Nc1ccc(Cl)c(Cl)c1)N[C@@H](Cc1ccccc1)C(=O)O [(2S)-2-({[(3,4-dichlorophenyl)amino]carbonyl}amino)-3-phenylpropanoic acid] | – | μM (0.57) | – | –
O=C(CN1C(=O)C2CC=CCC2C1=O)Nc1ccc(Br)cc1 (centres unmarked) [N-(4-bromophenyl)-1,3,3a,4,7,7a-hexahydro-1,3-dioxo-2H-isoindole-2-acetamide] | – | (0.98) | – | –
O=C(Nc1ccc(C(F)(F)F)cc1)N[C@@H](Cc1ccccc1)C(=O)O [(2S)-3-phenyl-2-[({[4-(trifluoromethyl)phenyl]amino}carbonyl)amino]propanoic acid] | 6.92 | nM (0.97) | – | –
CCC1(C)NC(=O)N(NC(=O)Nc2ccc(Cl)cc2)C1=O (centres unmarked) [1-(4-chlorophenyl)-3-(4-ethyl-4-methyl-2,5-dioxoimidazolidin-1-yl)urea] | 6.80 | nM (0.96) | – | –
CSc1ccc(NC(=O)N[C@@H](CC(C)C)C(=O)O)cc1 [Compound 128, (2S)-4-methyl-2-({[4-(methylsulfanyl)phenyl]carbamoyl}amino)pentanoic acid] | – | – | nM (0.92) | pEC50 (FPR2 [2]): 7.77
CC(C)NC(=O)C1C(C(=O)Nc2ccc(Br)cc2)C2CCC1C21CC1 (centres unmarked) [Compound 48, N-(4-bromophenyl)-N′-(propan-2-yl)spiro[bicyclo[2.2.1]heptane-7,1′-cyclopropane]-2,3-dicarboxamide] | – | – | nM (1.0) | pEC50 (FPR2 [2]): 8.17
CCC[C@H](NC(=O)Nc1ccc(Br)cc1)C(=O)NCC(=O)O [Compound 2, {[(2S)-2-{[(4-bromophenyl)carbamoyl]amino}pentanoyl]amino}acetic acid] | – | – | (0.91) | pEC50 (FPR2 [2]; unit inferred): 8.70
CC(C)C[C@H](NC(=O)Nc1ccc(Br)cc1)C(=O)N(C)CC(=O)OC(C)(C)C [Compound 154, tert-butyl {[(2S)-2-{[(4-bromophenyl)carbamoyl]amino}-4-methylpentanoyl](methyl)amino} acetate] | – | – | nM (0.85) | pEC50 (FPR2 [2]): 7.92

Structure (SMILES) | pEC50 (FPR2 [1]) | FPR2 Ga16-CHO (efficacy) (FPR2 [1]) | FPR2 (efficacy) (FPR2 [2]) | other results
CSc1ccc(NC(=O)Nc2ccc3c(c2)C(=O)N(CCc2c[nH]cn2)C(c2ccc(Cl)cn2)C3)cc1 (centres unmarked) [Compound 32, 1-{3-(5-chloropyridin-2-yl)-2-[2-(1H-imidazol-4-yl)ethyl]-1-oxo-1,2,3,4-tetrahydroisoquinolin-7-yl}-3-[4-(methylsulfanyl)phenyl]urea] | – | – | nM (0.91) | –
CC1(CCc2ccc(O)c(F)c2)NC(=O)N(NC(=O)Nc2ccc(Br)cc2F)C1=O (centres unmarked) [Compound 98, 1-(4-bromo-2-fluorophenyl)-3-{4-[2-(3-fluoro-4-hydroxyphenyl)ethyl]-4-methyl-2,5-dioxoimidazolidin-1-yl}urea] | – | – | nM (0.91) | –
CC(C)C1(CCc2ccccc2C(=O)O)NC(=O)N(NC(=O)Nc2ccc(Br)cc2)C1=O (centres unmarked) [Compound 151, 2-{2-[1-{[(4-bromophenyl)carbamoyl]amino}-2,5-dioxo-4-(propan-2-yl)imidazolidin-4-yl]ethyl}benzoic acid] | – | – | nM (1.0) | pEC50 (FPR2 [2]): 8.24
CC(C)C[C@H](NC(=O)Nc1ccc(Br)cc1)C(=O)NCC(O)CO (stereo partly drawn) [Compound 95, (2S)-2-{[(4-bromophenyl)carbamoyl]amino}-N-(2,3-dihydroxypropyl)-4-methylpentanamide] | – | – | nM (0.98) | –
CSc1ccc(NC(=O)C2C(C(N)=O)C3CCC2C3(C)C)cc1 (centres unmarked) [Compound 37, 7,7-dimethyl-N-[4-(methylsulfanyl)phenyl]bicyclo[2.2.1]heptane-2,3-dicarboxamide] | – | – | nM (0.85) | pEC50 (FPR2 [2]): 7.77
CCOP(=O)(CNC(=O)[C@H](CC(C)C)NC(=O)Nc1ccc(Br)cc1)OCC [Compound 112, diethyl ({[(2S)-2-{[(4-bromophenyl)carbamoyl]amino}-4-methylpentanoyl]amino}methyl)phosphonate] | – | – | – | pEC50 (FPR2 [2]): 9.32
CC(C)C[C@H](NC(=O)Nc1ccc(C(F)(F)F)cc1)C(=O)NCC(=O)O [Compound 124, {[(2S)-4-methyl-2-({[4-(trifluoromethyl)phenyl]carbamoyl}amino)pentanoyl]amino}acetic acid] | – | – | nM (1.0) | –
O=C(Nc1ccc(Br)cc1)NN1C(=O)NC(C2CC2)(C2CC2)C1=O [Compound 65, 1-(4-bromophenyl)-3-(4,4-dicyclopropyl-2,5-dioxoimidazolidin-1-yl)urea] | – | – | nM (1.0) | –
CCC(C)[C@@H](NC(=O)Nc1ccc(Br)cc1)C(=O)O (stereo in doubt) [Compound 122, (2R,3R)-2-{[(4-bromophenyl)carbamoyl]amino}-3-methylpentanoic acid] | – | – | μM (0.59) | –
CS(=O)(=O)c1ccc(NC(=O)Nc2ccc3c(c2)C(=O)N(CCc2c[nH]cn2)C(c2ccc(C#N)cc2)C3)cc1 (centres unmarked) [Compound 19, 1-{3-(4-cyanophenyl)-2-[2-(1H-imidazol-4-yl)ethyl]-1-oxo-1,2,3,4-tetrahydroisoquinolin-7-yl}-3-[4-(methylsulfonyl)phenyl]urea] | – | – | nM (1.00) | –
Cc1ccc(CCC2(C)NC(=O)N(NC(=O)Nc3ccc(Br)cc3)C2=O)o1 (centres unmarked) [Compound 97, 1-(4-bromophenyl)-3-{4-methyl-4-[2-(5-methylfuran-2-yl)ethyl]-2,5-dioxoimidazolidin-1-yl}urea] | – | – | nM (0.95) | –
CC1(C)C2CCC1C(C(=O)Nc1ccc(Br)cc1)C2C(=O)O (centres unmarked) [Compound 21, 3-[(4-bromophenyl)carbamoyl]-7,7-dimethylbicyclo[2.2.1]heptane-2-carboxylic acid] | – | – | nM (0.85) | –
CC1(CCc2ccc(F)cc2)NC(=O)N(NC(=O)Nc2ccc(Br)cc2)C1=O (centres unmarked) [Compound 82, 1-(4-bromophenyl)-3-{4-[2-(4-fluorophenyl)ethyl]-4-methyl-2,5-dioxoimidazolidin-1-yl}urea] | – | – | nM (1.0) | pEC50 (FPR2 [2]): 7.79
CSc1ccc(NC(=O)Nc2ccc3c(c2)C(=O)N(CCc2c[nH]cn2)C(c2ccc(Cl)o2)C3)cc1 (centres unmarked) [Compound 27, 1-{3-(5-chlorofuran-2-yl)-2-[2-(1H-imidazol-4-yl)ethyl]-1-oxo-1,2,3,4-tetrahydroisoquinolin-7-yl}-3-[4-(methylsulfanyl)phenyl]urea] | – | – | nM (0.81) | –
CC(C)CC(C)(NC(=O)Nc1ccc(Br)cc1)C(=O)NCC(=O)O (centres unmarked) [Compound 111, [(2-{[(4-bromophenyl)carbamoyl]amino}-2,4-dimethylpentanoyl)amino] acetic acid] | – | – | nM (0.99) | pEC50 (FPR2 [2]): 7.72
CCC1(CCc2ccccc2)NC(=O)N(NC(=O)Nc2ccc(Br)cc2)C1=O (centres unmarked) [Compound 1, 1-(4-bromophenyl)-3-[4-ethyl-2,5-dioxo-4-(2-phenylethyl)imidazolidin-1-yl]urea] | – | – | (0.96) | pEC50 (FPR2 [2]; unit inferred): 8.52
CC(C)C[C@H](NC(=O)Nc1ccc(C(F)(F)F)cc1)C(=O)NCc1nnn[nH]1 [Compound 136, (2S)-4-methyl-N-(1H-tetrazol-5-ylmethyl)-2-({[4-(trifluoromethyl)phenyl]carbamoyl}amino)pentanamide] | – | – | nM (0.96) | pEC50 (FPR2 [2]): 8.43
CC1(CCc2cccc(O)c2)NC(=O)N(NC(=O)Nc2ccc(Br)cc2F)C1=O (centres unmarked) [Compound 107, 1-(4-bromo-2-fluorophenyl)-3-{4-[2-(3-hydroxyphenyl)ethyl]-4-methyl-2,5-dioxoimidazolidin-1-yl}urea] | – | – | nM (0.79) | pEC50 (FPR2 [2]): 8.66
